From patent US8338450B2, “Compounds as dipeptidyl peptidase IV (DPP IV) inhibitors” (Lupin Limited, priority 2007, dated 2012)
Structures can show the parent of a compound that is named as a salt. Where two headings read alike, the source gives them in different places.

How the values were obtained:
[1] = target: T1, human recombinant DPP-IV (Homo sapiens, UniProt P27487); assay: Inhibition of human recombinant DPP-IV (Gly-Pro-AMC hydrolysis, fluorometric); type: biochemical; conditions: human recombinant DPP-IV, 50 μM Gly-Pro-AMC, 30 min at 30° C.
T1 construct: purchased R&D Systems, USA (or produced in-house)
Summary of the method: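 Enzyme (10 ng) was preincubated 15 min at 30° C. with compound (10 and 100 nM screen; 8 concentrations 0.1-1000 nM) in Tris-HCl pH 7.4, NaCl, KCl, BSA. 50 μM Gly-Pro-AMC was added for 30 min at 30° C. and AMC fluorescence was read (ex 360/em 460 nm). Results are given as % inhibition versus vehicle or as IC50.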

[2] = target: T2, plasma DPP-IV (Rattus norvegicus, UniProt P14740); assay: Measurement of plasma DPP-IV activity in male Wistar rats after single oral dose; type: in vivo; conditions: p.o.; for inhibition at 3 mg/kg / inhibition at 10 mg/kg: rat, po; for inhibition at 3 mg/kg / Plasma DPP-IV Inhibition (%) 4 h / Plasma DPP-IV Inhibition (%) 6 h / Plasma DPP-IV Inhibition (%) 8 h: 3 mg/kg
T2 construct: from tissue; host or cells: EDTA-plasma of male Wistar rats dosed orally
Procedure: Overnight-fasted male animals were administered either vehicle or single oral doses of compounds. Blood samples were withdrawn from retro-bulbar venous plexus under anesthesia at several time points up to 24 h post-dose. EDTA-plasma was separated and DPP-IV activity was measured using a fluorometric assay. Assays were carried out in 96-well flat-bottom black microwell plates. A typical reaction contained 25 μl plasma, 50 μl of 50 μM substrate (Gly-Pro-AMC) and 25 μl assay buffer (25 mM Tris-HCl, pH 7.4, 140 mM NaCl, 10 mM KCl and 1% BSA) in a total reaction volume of 100 μl. Plasma samples were incubated with the substrate for 30 min at 30° C., following which the fluorescence was measured in a microplate fluorescence redaer (POLARstar Galaxy), with excitation and emission wavelengths set at 360 nm and 460 nm, respectively. Percent inhibition in plasma DPP-IV activity due to compounds was calculated by comparing with plasma from vehicle-treated animals.

[3] = test system: C57BL/6J mice; assay: Oral glucose tolerance test in male C57BL/6J mice; type: in vivo; conditions: 3 mg/kg, p.o., oral glucose load 5 g/kg 1 h after compound, glucose AUC 0-120 min vs vehicle
Procedure: B. Oral Glucose Tolerance Test in Male C57BU6J Mice
Overnight-fasted male […] mice were challenged 1 h, 4 h and 8 h after either vehicle or compound administration with an oral glucose load of 5 g/kg in three different groups of animals. Blood samples for glucose measurement were obtained by tail bleed at predose, before glucose load and at serial time points after the glucose load, to evaluate the efficacy and duration of effect on glucose tolerance test. […] Improvement in glucose tolerance in compound-treated animals was estimated by comparing with vehicle-treated animals.
Table 3 provides data for the antihyperglycemic activity of selected compounds in C57BL/6J mice, as determined by oral glucose tolerance test.

[4] = 4 h post-dose, read-out: Plasma DPP-IV Inhibition (%) 4 h
[5] = 6 h post-dose, read-out: Plasma DPP-IV Inhibition (%) 6 h
[6] = 8 h post-dose, read-out: Plasma DPP-IV Inhibition (%) 8 h

T2 sequence (P14740 37-767 limits assumed): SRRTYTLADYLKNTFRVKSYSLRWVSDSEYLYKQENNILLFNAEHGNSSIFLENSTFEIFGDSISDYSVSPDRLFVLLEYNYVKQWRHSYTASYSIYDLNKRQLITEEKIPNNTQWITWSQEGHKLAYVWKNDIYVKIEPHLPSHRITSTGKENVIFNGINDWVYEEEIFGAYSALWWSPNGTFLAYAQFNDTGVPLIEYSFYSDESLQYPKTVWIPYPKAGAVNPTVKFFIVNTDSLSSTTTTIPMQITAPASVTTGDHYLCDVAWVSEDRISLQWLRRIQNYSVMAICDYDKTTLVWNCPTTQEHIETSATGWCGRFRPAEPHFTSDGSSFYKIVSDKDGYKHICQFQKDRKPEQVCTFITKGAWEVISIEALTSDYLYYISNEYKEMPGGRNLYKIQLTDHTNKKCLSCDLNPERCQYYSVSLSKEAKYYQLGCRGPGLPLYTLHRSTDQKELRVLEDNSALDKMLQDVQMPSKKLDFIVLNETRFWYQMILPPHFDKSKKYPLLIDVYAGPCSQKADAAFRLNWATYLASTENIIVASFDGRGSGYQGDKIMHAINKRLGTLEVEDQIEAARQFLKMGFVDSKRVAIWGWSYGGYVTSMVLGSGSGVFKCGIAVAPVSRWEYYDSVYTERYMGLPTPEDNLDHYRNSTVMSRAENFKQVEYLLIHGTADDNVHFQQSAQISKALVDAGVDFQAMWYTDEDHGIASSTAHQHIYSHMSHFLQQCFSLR
T1 sequence (P27487 whole entry): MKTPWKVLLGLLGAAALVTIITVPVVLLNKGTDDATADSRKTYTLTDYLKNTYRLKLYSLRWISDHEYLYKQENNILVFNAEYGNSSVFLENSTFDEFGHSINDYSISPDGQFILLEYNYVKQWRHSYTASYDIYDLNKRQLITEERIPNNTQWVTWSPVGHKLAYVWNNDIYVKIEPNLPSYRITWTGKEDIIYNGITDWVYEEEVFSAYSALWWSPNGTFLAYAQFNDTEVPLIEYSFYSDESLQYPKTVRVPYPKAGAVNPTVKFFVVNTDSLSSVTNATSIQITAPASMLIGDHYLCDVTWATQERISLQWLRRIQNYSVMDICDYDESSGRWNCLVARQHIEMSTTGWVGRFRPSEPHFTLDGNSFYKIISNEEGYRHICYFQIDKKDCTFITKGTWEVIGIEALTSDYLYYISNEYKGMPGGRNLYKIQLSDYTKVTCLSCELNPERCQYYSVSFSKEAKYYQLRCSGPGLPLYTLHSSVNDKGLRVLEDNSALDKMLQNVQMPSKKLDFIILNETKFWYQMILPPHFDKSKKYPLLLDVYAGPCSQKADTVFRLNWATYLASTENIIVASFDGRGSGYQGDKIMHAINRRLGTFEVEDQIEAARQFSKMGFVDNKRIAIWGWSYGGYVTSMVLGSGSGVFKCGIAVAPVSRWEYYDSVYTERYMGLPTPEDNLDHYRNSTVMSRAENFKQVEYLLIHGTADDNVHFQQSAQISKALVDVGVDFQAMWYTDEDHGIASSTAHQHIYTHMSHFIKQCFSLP

SMILES | IC50 [1] | inhibition at 3 mg/kg [2, 4] | inhibition at 3 mg/kg [2, 5] | inhibition at 3 mg/kg [2, 6] | inhibition at 10 mg/kg [2, 4] | inhibition at 10 mg/kg [2, 5] | inhibition at 10 mg/kg [2, 6] | Improvement in Glucose Tolerance (%) 1 h [3] | Plasma DPP-IV Inhibition (%) 4 h ([2]; 4 h post-dose) | Plasma DPP-IV Inhibition (%) 6 h ([2]; 6 h post-dose) | Plasma DPP-IV Inhibition (%) 8 h ([2]; 8 h post-dose)
N#C[C@@H]1C[C@@H]2C[C@@H]2N1C(=O)[C@@H](N)C1CC2CCC(C1)N2C(=O)c1ccnc(F)c1 (stereo partly drawn) [Compound 28, (1S,3S,5S)-2-{(2S)-2-amino-2-[8-(2-fluoropyridine-4-carbonyl)-8-aza-bicyclo[3.2.1]-oct-3-yl]-exo-ethanoyl}-2-azabicyclo[3.1.0]-hexane-3-carbonitrile trifluoro acetic acid salt] | 4.7 nM | 51% | 35% | 28% | 77% | 65% | 53% | 54% | – | – | –
N#C[C@@H]1C[C@@H]2C[C@@H]2N1C(=O)[C@@H](N)C1CC2CCC(C1)N2C(=O)c1cnccn1.O=C(O)C(F)(F)F (stereo partly drawn) [Compound 35, (1S,3S,5S)-2-{(2S)-2-Amino-2-[8-(pyrazine-2-carbonyl)-8-aza-bicyclo[3.2.1]oct-3-yl]-exo-ethanoyl}-2-azabicyclo[3.1.0]hexane-3-carbonitrile trifluoroacetic acid salt] | 4.2 nM | – | – | – | – | – | – | 46% | 54% | 42% | 33%
C#C[C@H]1CC[C@@H](C#N)N1C(=O)[C@@H](N)C1CC2CCC(C1)N2C(=O)c1ccc2c(c1)OCO2.O=C(O)C(F)(F)F (stereo partly drawn) [Compound 67, (2S,5R)-1-{(2S)-2-Amino-2-[8-(benzo[1,3]dioxole-5-carbonyl)-8-aza-bicyclo[3.2.1]oct-3-yl]-exo-ethanoyl}-5-ethynyl-pyrrolidin-2-carbonitrile trifluoroacetic acid salt] | 7.68 nM | – | – | – | – | – | – | 50% | 64% | 36% | 23%
